{"source": "paper PMC7496964", "about": "(Chemistry (Weinheim an Der Bergstrasse, Germany), 2020)", "origin": "cited, not measured here", "biological_target": "human langerin ECD (Homo sapiens, UniProt Q9UJ71)", "sequence (Q9UJ71 65-328 limits assumed)": "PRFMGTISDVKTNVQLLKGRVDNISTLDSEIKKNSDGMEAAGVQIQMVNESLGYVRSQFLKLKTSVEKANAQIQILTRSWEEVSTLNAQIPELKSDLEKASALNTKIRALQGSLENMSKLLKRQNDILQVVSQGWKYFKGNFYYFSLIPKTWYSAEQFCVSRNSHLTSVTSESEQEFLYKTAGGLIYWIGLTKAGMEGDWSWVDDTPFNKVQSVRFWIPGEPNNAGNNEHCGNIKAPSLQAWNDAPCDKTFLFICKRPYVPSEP", "data": [{"substance": "1-α-azido B-trisaccharide [compound 10]", "values": [{"measurement": "Langerin affinity (in words), literature", "value": "weak affinity"}]}]}
